The values below come from patent US6827926B2, “Metallotetrapyrrolic photosensitizing agents for use in photodynamic therapy” (Miravant Pharmaceuticals, Inc., priority 2001, dated 2004).

The test system of this assay is V79 (Chinese Hamster Lung Fibroblasts) cells. Put plainly: In vitro cytotoxicity assay (light EC50, Alamar blue). It is filed as cell-based. The protocol:
The in vitro biological evaluation of photosensitizers for their ability to photosensitize cells was performed using standard procedures. Using 5% FBS/DMEM phenol-free media, wells (180 μl/well) were plated with 5×10^4 V79 (Chinese Hamster Lung Fibroblasts) cells/ml into two 96 well plates. Plate 1 was light-treated and plate 2 served as a control. The plates were Incubated at 37° C., 5% CO2 for 3-5 hours. Standard solutions of the photosensitizers were dissolved in pre-filtered Dimethyl Sulfoxide (DMSO). Drug was diluted in 5% FBS DMEM phenol free medium. Final drug concentrations for light and dark experiments were 0.01, 0.1, 1.0, 3.0 and 5.0 μM. Twenty microliters of each concentration were added to six replicate wells to the light and dark plate. The plates were wrapped in aluminum foil to avoid photoactivation and mixed in a gyratory shaker for approximately 2 minutes. Both plates were incubated for 24 hours at 37° C., 5% CO2. After a 24 hour incubation, drug-containing media was aspirated from the plates. Each well was rinsed with 180 μl Hepes buffer salt solution (HBSS) then aspirated to remove the HBSS. 180 μl of fresh media were added (5% FBS/DMEM phenol-free) to each well. […] Plate 2 was not light treated. Immediately after light treatment, 20 μl Alamar blue was added to each well in plate 1. Alamar blue was added to plate 2 immediately after fresh media was added. The plates were mixed on a gyratory shaker for 5 min.
Both plates were incubated under dark conditions for 24 hours at 37° C., 5% CO2. After 24 hour incubation, the plates were read on a plate reader spectrophotometer (Spectra Max 250) at wavelengths 570 and 600 nm. and the percentage of cell survival recorded.
(In general: The colour change of resazurin is a common sign of viable cells or microbes.)

The mark [1] stands for this setting: light EC50, metallodiazaporphyrins, read-out: In Vitro EC(50).
The mark [2] stands for this setting: Table 4 azaporphyrins, 575 nm (Pt azaporphyrins 532 nm), 1.25 J/cm^2, read-out: In Vitro EC(50).
The mark [3] stands for this setting: Table 3 porphyrins, 24 h drug incubation, 532 nm, 1.25 J/cm^2, read-out: In Vitro EC50 Light.

Where two headings read alike, the source gives them in different places.

For the compound “Gallium Chloride 3,7,14,17-tetramethyl-5,10-diazaporphyrin-2,8,12,18-tetra propionic acid [Example 117]”, under setting [1], the EC50 is 600 nM.
As to `CCC1=C(CC)C2=Nc3c(CC)c(CC)c4[n]3[In]([Cl])[n]3c(c(C)c(CCCO)c3=CC3=NC(=C4)C(C)=C3CCCO)=CC1=N2` [Example 104, Indium Chloride 7,8,12,13-tetraethyl-12,17-dimethyl-10-azaporphyrin-2,18-di(3′-hyroxypropyl)], under setting [2], the EC50 stood at 30 nM.
Same read-out and setting: for `CCC1=C(CC)C2=Nc3c(CC)c(CC)c4[n]3[Pt][n]3c(c(C)c(CCC(=O)NCCCO)c3=CC3=NC(=C4)C(C)=C3CCC(=O)NCCCO)=CC1=N2` [Example 98, Platinum 7,8,12,13-tetraethyl-12,17-dimethyl-10-azaporphyrin-2,18-di(propionic acid-3′-hydroxypropyl amide amide)] the value was 2000 nM.
For `CCC1=C(C)C2=[N+]3C1=Cc1c(C)c(CC)c4[n]1[Pt-2]31[n]3c(c(C)c(CCC(=O)NCCOC)c3=CC3=[N+]1C(=C4)C(C)=C3CCC(=O)NCCOC)=C2` (stereo not drawn) [Example 65, Platinum Mesoporphyrin di(2-methoxyethylamide)], the EC50 under setting [3] is 50 nM.
Still for that read-out and setting: for `CCC1=C(C)c2cc3[n-]c(cc4nc(cc5[n-]c(cc1n2)c(C)c5CC)C(C)=C4CCC(=O)NCCCO)c(CCC(=O)NCCCO)c3C.[Pt+2]` [Example 67, Platinum Mesoporphyrin di(3-hydroxypropylamide)] the value was 100 nM; for `CCC1=C(C)C2=[N+]3C1=Cc1c(C)c(CC)c4[n]1[Ga-2]31([Cl])[n]3c(c(C)c(CCC(=O)NCCOCCO)c3=CC3=[N+]1C(=C4)C(C)=C3CCC(=O)NCCOCCO)=C2` [Example 16, Gallium Chloride Mesoporphyrin 2-ethoxyethanol amide], 2900 nM.
On the same count and under the same terms, under `CCC1=C(C)C2=Cc3c(CC)c(C)c4[n]3[Ga-2]35([Cl])[n]6c(c(C)c(CCCOCCOC)c6=CC6=[N+]3C(=C4)C(C)=C6CCCOCCOC)=CC1=[N+]25` [M=Ga R1=Et R3=Me R4=Et R2=CH2O(CH2)2OCH3] stands 430 nM.
`CCC1=C(CC)C2=Nc3c(CC)c(CC)c4[n]3[Ga]([Cl])[n]3c(c(C)c(CCC(=O)NCCOCCO)c3=CC3=NC(=C4)C(C)=C3CCC(=O)NCCOCCO)=CC1=N2` [Example 100, Gallium Chloride 7,8,12,13-tetraethyl-12,17-dimethyl-10-azaporphyrin-2,18-di(propionic acid-2-ethoxyethanol amide)]: under setting [2], the EC50 was found to be 1300 nM.
On to `CCC1=C(CC)C2=Nc3c(CC)c(CC)c4[n]3[Pt][n]3c(c(C)c(CCCO)c3=CC3=NC(=C4)C(C)=C3CCCO)=CC1=N2` [Example 105, Platinum 7,8,12,13-tetraethyl-12,17-dimethyl-10-azaporphyrin-2,18-di(3′-hyroxypropyl)], for which, under setting [2], the EC50 worked out at 40 nM.
As to `CNC(=O)CCC1=C(C)C2=Cc3cc(C)c4[n]3[Ga-2]35([Cl])[n]6c(c(C)c(CCC(=O)NC)c6=CC1=[N+]23)=CC1=[N+]5C(=C4)C=C1C` [Example 6, Gallium Chloride Deuteroporphyrin Methylamide], the EC50 under setting [3] came to 4050 nM.
Take `CCC1=C(CC)C2=[N+]3C1=Nc1c(CC)c(CC)c4[n]1[Pt-2]31[n]3c(c(CC)c(CC)c3=C2c2ccc(OC)cc2)=NC2=[N+]1C(=C4c1ccc(OC)cc1)C(CC)=C2CC` (stereo not drawn) [M=Pt, R1=Et, R2=Et, R3=p-(C6H4)OCH3]: the EC50 under setting [1] was 300 nM.
As for `CCC1=C(C)c2nc1cc1[n-]c(cc3nc(cc4[n-]c(n2)c(C)c4CCC(=O)NCCCO)C(CCC(=O)NCCCO)=C3C)c(CC)c1C.[Cl-].[Ga+3]` [Example 99, Gallium Chloride 5-azamesoporphyrin IX di(3′-hydroxypropyl amide)], under setting [2], the EC50 amounted to 500 nM.
For `CCOP(=O)(CCCC1=C(C)c2cc3cc(C)c(cc4nc(cc5[n-]c(cc1n2)c(CCCP(=O)(OCC)OCC)c5C)C(C)=C4)[n-]3)OCC.[Cl-].[Ga+3]` [Example 80, Gallium Chloride 3,7,12,17-tetramethylporphyrin-2,18-di((3′-diethylphosphono)propyl)], the EC50 under setting [3] came to 2000 nM.
In the case of `CCC1=C(C)c2nc1cc1[n-]c(cc3nc(cc4[n-]c(n2)c(C)c4CCC(=O)OC)C(CCC(=O)OC)=C3C)c(CC)c1C.[Cl-].[Ga+3]` [Example 20, Gallium Chloride 5-azamesoporphyrin IX Dimethyl Ester], the EC50 under setting [2] is 400 nM.
As to `CCC1=C(C)C2=Cc3c(CC)c(C)c4[n]3[Ga-2]35([Cl])[n]6c(c(C)c(CCCOCCO)c6=CC6=[N+]3C(=C4)C(C)=C6CCCOCCO)=CC1=[N+]25` [M=Ga R1=Et R3=Me R4=Et R2=CH2O(CH2)2OH], under setting [3], the EC50 worked out at 500 nM.
`CCC1=C(CC)C2=Nc3c(CC)c(CC)c4[n]3[Pt][n]3c(c(C)c(CCC(=O)NCCN(C)C)c3=CC3=NC(=C4)C(C)=C3CCC(=O)NCCN(C)C)=CC1=N2` [Example 103, Platinum 7,8,12,13-tetraethyl-12,17-dimethyl-10-azaporphyrin-2,18-di(propionic acid-2′-N,N-dimethylaminoethyl amide)]: the EC50 under setting [2] came out at 1200 nM.
Same read-out and setting: under `CCC1=C(CC)C2=[N+]3C1=Nc1c(CC)c(CC)c4[n]1[Pt-2]31[n]3c(c(C)c(CCC(=O)O)c3=CC3=[N+]1C(=C4)C(C)=C3CCC(=O)O)=C2.[K+].[K+]` (stereo not drawn) [Example 86, Platinum 7,8,12,13-tetraethyl-12,17-dimethyl-10-azaporphyrin-2,18-di(propionic acid Potassium Salt)] stands 400 nM.
For “Gallium Chloride 3,7,14,17-tetramethyl-5,10-diazaporphyrin-2,8,12,18-tetra (3′-hydroxypropyl) [Example 118]”, the EC50 under setting [1] stood at 300 nM.
Still for that read-out and setting: under “Platinum 3,7,14,17-tetramethyl-5,10-diazaporphyrin-2,8,12,18-tetra(propionic acid methyl ester [Example 119]” stands 350 nM.
Consider `CCC1=C(CC)C2=[N+]3C1=Nc1c(CC)c(CC)c4[n]1[Pt-2]31[n]3c(c(C)c(CCC(=O)OC)c3=CC3=[N+]1C(=C4)C(C)=C3CCC(=O)OC)=C2` (stereo not drawn) [Example 85, Platinum 7,8,12,13-tetraethyl-12,17-dimethyl-10-azaporphyrin-2,18-di(propionic acid methyl ester)], for which the EC50 under setting [2] was 4000 nM.
For `CCC1=C(CC)C2=[N+]3C1=Nc1c(CC)c(CC)c4[n]1[Ga-2]31([OH])[n]3c(c(C)c(CCC(=O)O)c3=CC3=[N+]1C(=C4)C(C)=C3CCC(=O)O)=C2.[Na+].[Na+]` [Example 88, Gallium Hydroxy 7,8,12,13-tetraethyl-12,17-dimethyl-10-azaporphyrin-2,18-di(propionic acid Sodium Salt)], the EC50 under setting [2] was found to be 500 nM.
Same read-out and setting: under `CCC1=C(CC)C2=Nc3c(CC)c(CC)c4[n]3[Pt][n]3c(c(C)c(CCC(=O)NC)c3=CC3=NC(=C4)C(C)=C3CCC(=O)NC)=CC1=N2` [Example 92, Platinum 7,8,12,13-tetraethyl-12,17-dimethyl-10-azaporphyrin-2,18-di(propionic acid methyl amide)] stands 2300 nM.
Same read-out and setting: for `CCC1=C(CC)c2nc1cc1[n-]c(cc3nc(cc4[n-]c(n2)c(CC)c4CC)C(C)=C3CCCOC)c(CCCOC)c1C.[Cl-].[Ga+3]` [Example 106, Gallium Chloride 7,8,12,13-tetraethyl-12,17-dimethyl-10-azaporphyrin-2,18-di(3′-methoxypropyl)] the value was 1000 nM.
In the case of “Platinum 3,7,14,17-tetramethyl-5,10-diazaporphyrin-2,8,12,18-tetra(3′-hydroxypropyl) [Example 120]”, under setting [1], the EC50 is 60 nM.
